This is an account of results in patent publication US6482799B1, “Self-preserving multipurpose ophthalmic solutions incorporating a polypeptide antimicrobial” (The Regents of the University of California, priority 1999, dated 2002).

Format in all cases: cell-based
Test [1] relates to Escherichia coli (ATCC 8739). Kind of test: Protocol 1 kill curve / MIC, 1 hour at 37° C. As to conditions: 6.25 μg/ml, 10 mM sodium phosphate buffer. On the procedure: (§1) This protocol is used to develop dose-response (kill) curves to calculate the minimal inhibitory concentration of an indolicidin (e.g., L-indolicidin (L-IND)) when formulated in a commercially available phosphate buffered saline (PBS) solution. In addition, for comparative purposes, kill curves are established for the following three commonly available commercial lens-care products containing different preservatives:
The stock solutions are diluted in a 2-fold fashion by transferring 1 ml of each stock solution to 1 ml of appropriate diluent in sterile glass tubes (100×13 mm). Twelve additional 2-fold dilutions are made by transferring 1 ml aliquots of each dilution to 1 ml diluent. The diluent for all commercial lens-care products is PBS. […]
(§2) Viable counts of the bacteria are performed by 10-fold serial dilutions in sterile PBS and by plating 0.1 ml aliquots on nutrient agar plates. […] The plates are incubated overnight at 37° C. and colonies are counted and recorded. […]
(§3) Survival is expressed as number of surviving bacteria (CFU/ml) for each dilution of the test article and control solutions. The lowest dose of the test article that results in complete kill of the test organism, compared to the non-exposed control, is determined to be the MIC value. […]

For test [2], the system named is Staphylococcus aureus (ATCC 6538). Kind of test: MIC / log kill assay, FDA 510(k) stand-alone procedure. As to conditions: for log kill: 12.5 μg/ml. On the procedure: (§4) The supernatant was discarded and the wash repeated.
(§5) The tube was inverted to dissolve the polypeptide. […] Solutions were used immediately or stored at −20° C.
(§6) The purpose of this experiment was to determine whether additives such as surfactants (pluronic) and chelating agents (EDTA) would effect L-IND activity. The concentrations selected for each organism tested ( S. aureus and P. aeruginosa) were based on the L-IND MIC for that organism. A lower concentration was also selected to determine whether the additives enhanced the antimicrobial activity of L-IND. Concentrations of L-IND ranged from 3.12 to 50 μg/ml. The concentration of sodium phosphate (SP) buffer was also examined and ranged from 1 to 10 mM.
(§7) A full factorial experimental design was used with 5 factors at 2 levels: 1) Exposure time (1 hr, 4hr); 2) SP buffer concentration, pH 7.4 (1 mM, 10 mM); 3) Surfactant concentration (0.25 wt %, 0.5 wt %); 4) EDTA concentration (0.1 wt %, 0.2 wt %); and 5) L-IND concentration (MIC and lower).
(§8) As described in the MIC procedure (Example 10), cultures were exposed to solutions containing various combinations of the above components for 1 or 4 hr at room temperature. Appropriate controls were conducted to evaluate the effects of individual components. Each replicate (assay done in triplicate) was then diluted 10-fold in NaCl and plated onto Mueller-Hinton agar. Colonies were then counted and log kill, effects of each additive, SP buffer concentration, and length of exposure on L-IND activity were examined. […]

Test [3] has as its system Pseudomonas aeruginosa (ATCC 9027). The description is as above. Here is the method: as §4, §5, §6, §7, §8
The test system of test [4] is Pseudomonas aeruginosa (ATCC 27853). Kind of test: Protocol 1 kill curve / MIC, 1 hour at 37° C. in glass tubes. On the procedure: as §1
An initial dose range experiment is performed to determine a suitable dose range for the final experiment. The indolicidin (e.g., L-IND) is tested in the preliminary toxicity experiment at 13 different dose levels in a range between 500 μg/ml and 0.125 μg/ml. The 3 control samples with preservatives are tested at 13 different dose levels with the highest dose level representing the undiluted solution. […]
as §2, §3

As to `CC[C@H](C)[C@H](N)C(=O)N[C@@H](CC(C)C)C(=O)N1CCC[C@H]1C(=O)N[C@@H](Cc1c[nH]c2ccccc12)C(=O)N[C@@H](CCCCN)C(=O)N[C@@H](Cc1c[nH]c2ccccc12)C(=O)N1CCC[C@H]1C(=O)N[C@@H](Cc1c[nH]c2ccccc12)C(=O)N[C@@H](Cc1c[nH]c2ccccc12)C(=O)N1CCC[C@H]1C(=O)N[C@@H](Cc1c[nH]c2ccccc12)C(=O)N[C@@H](CCCNC(=N)N)C(=O)N[C@@H](CCCNC(=N)N)C(N)=O` [L-indolicidin, H2N-ILPWKWPWWPWRR-CONH2], the survival in test [1] was 15%; in test [4] (all dose levels 100-6.25 μg/ml, 10 mM phosphate buffer pH 7.4, 2.01×10^5 CFU/ml), 100%; in test [4] (all dose levels 5,000-1.25 μg/ml in PBS, 1 hour 37° C., 5.9×10^5 CFU/ml), 100%. In addition, the log kill in test [2] (1 mM SP buffer, pluronic and EDTA at either concentration) stood at 6 log; in test [2] (10 mM SP, without pluronic), 6 log. Moreover, the “effect of EDTA on activity” value in test [2] (10 mM SP, EDTA 0.1 or 0.2 wt %) was “no effect”. Further, the inhibition in kill result in test [2] (0.5 wt % pluronic, SP at 5 mM) is on record as “approximately 4 log”; in test [2] (32 μ/ml, pluronic and 10 mM SP buffer) it was over 3 log; in test [3] (pluronic in 1 mM SP buffer, 32 and 16 μg/ml, 4 hr) it was about 3 log. Besides, the “effect of pluronic on activity” value is listed as “no effect in activity” in test [2] (lower SP concentrations (1, 2.5 mM)) and “No effect” in test [3] (32 μ/ml, 0.25 wt % pluronic, either SP buffer concentration).
